Data set [1] can be described thus: Metabolic stability in human liver microsomes. The format is in vitro ADME. To be noted: Table 3, read-out: ADME t1/2 (min): HLMt1/2. An excerpt:
(§1) A computational analysis of the top five hits was then completed to assess the physical attributes of the compounds emerging from the HTS. The target profile for drug-like properties included evaluation of molecular weight (MW), total polar surface area (PSA, the surface sum of all polar atoms on the molecule), solubility, metabolic stability, and partition coefficient (LogD). In general, MW<[…] and PSA <70 Å^2 were targeted, which generally allows for blood-brain barrier (BBB) permeability. Compounds with PSA >100 A^2 are generally poor at permeating cell membranes. Solubility was targeted at >10 μM at pH 7.4 and 40-60% of compound remaining after 60 minutes of incubation in mouse or human liver microsomes (an indicator of compound stability after first-pass metabolism). LogD is the log of the ratio of concentrations of a compound in two immiscible solvents at equilibrium. Values ranging from 2-4 were targeted, typical for CNS drugs. Based on these criteria, compound no. 55 was selected as the top hit for optimization. Compound no.
On the technique in general: Microsomes from liver hold many membrane-bound enzymes, among them those of drug oxidation.

The nature of data set [2]: Metabolic stability in mouse liver microsomes. The format is in vitro ADME. To be noted: for half-life: mouse, liver microsomes, Table 3, read-out: ADME t1/2 (min): MLMt1/2.
Another data set can be described thus: Solubility. To be noted: for ADME Sol (μM): Table 3; for Solubility: Table 2. The format is physicochemical.
For a further data set, the target named is Tau-FynSH3 interaction (Homo sapiens (Human), UniProt P10636). The experiment in a line: Tau-FynSH3 AlphaScreen. The format is binding. An excerpt:
Human Fyn-SH3 domain with GST-tag at the N-terminus and a Strep-tag II ([…]) at the C-terminus (GST-Fyn-SH3-Strep) was cloned into pPR-IBA1 vector (IBA Lifesciences) (Cochran, et al. (2014) J. Biomol. Screen. 19, 1338-1349). Codon-optimized human 4R2N Tau for E. coli expression with a Strep-tag II at the C-terminus (His-Tau-Strep) was cloned into pET-28a(+) vector (Novagen). The constructs were transformed into E. coli BL-21(DE3) competent cells (Novagen). For GST-Fyn-SH3-Strep purification, a single colony was inoculated in Luria-Bertani (LB) broth at 37° C. overnight. 10 mL cell culture was added into 500 mL LB medium and cultured at 37° C. 0.5 mM Isopropyl β-D-1-thiogalactopyranoside (IPTG) was added into the culture when OD600 reached 0.7. Cells were further cultured at 25° C. for 4 hours and harvested. Cell pellet was resuspended in lysis buffer (20 mM Tris pH 7.9, 300 mM NaCl, 1 mM TCEP) with 1 tablet of EDTA-free protease inhibitors (ThermoFisher) and 1 mg/ml lysozyme. Cells were disrupted by sonication and debris was removed by centrifugation at 9500 rpm for 1 hour. Supernatant was loaded onto a glutathione-sepharose column (Cytiva). The column was washed in lysis buffer and protein eluted in lysis buffer containing 25 mM reduced glutathione. For His-Tau-Strep protein purification, cells were inoculated in LB broth medium and cultured at 37° C. overnight. A 10 mL overnight culture was added to 500 mL of auto-induction medium (Studier, F. W. (2005) Protein Expr Purif 41, 207-34) and cells were cultured at 37° C. for about 5 hours. The temperature was lowered to 18° C., and cells were cultured overnight. Cells were harvested and resuspended in lysis buffer with 20 mM imidazole, protease inhibitors, and lysozyme. Cells were disrupted by sonication and cell pellets were spun down at 9500 rpm for 1 hour. Supernatant was loaded onto Ni-NTA column (Cytiva) and the column was washed in lysis buffer with 20 mM imidazole. His-Tau-Strep protein was eluted in lysis buffer containing 400 mM imidazole. Both eluted GST-Fyn-SH3-Strep and His-Tau-Strep protein solutions were passed through G-25 desalting column (Cytiva) with lysis buffer and loaded onto high capacity Strep-Tactin column (IBA Lifesciences). The columns were washed in Buffer W (IBA Life sciences) and proteins were eluted in Buffer E (IBA life sciences). The eluted proteins were passed through G-25 desalting column again. Both GST-Fyn-Strep and His-Tau-Strep proteins were concentrated and diluted 1:1 in ethylene glycol as a cryoprotectant for storage at −80° C.
AlphaScreen was conducted with 10 µg/mL of glutathione donor beads (PerkinElmer, Waltham, MA) and nickel chelate acceptor beads (PerkinElmer) in 10 mM Bis-Tris (pH 7.0), 1 mM TCEP, 0.02% casein, and 0.1% Tween-20. Compounds were plated first followed by addition of one the proteins at 600 nM and incubation for 30 min. The second protein was added and incubated for 30 mn, then the beads were added simultaneously and the final mixture was incubated for 2 hours. Experiments were conducted in 384-well plates (6007290; PerkinElmer) and results were read on a PHERAstar plate reader (BMG Labtech, Cary, NC).
˜50,000 compounds from the Enamine and Southern Research libraries were screened to identify Tau-FynSH3 interaction inhibitors using an AlphaScreen assay (Cochran, et al. (2014) J. Biomol. Screen. 19, 1338-1349). Compounds that were >3 standard deviations above mean inhibition were selected, yielding 1,852 hits (FIG. 1A). […]. These 39 compounds were tested in a live-cell BRET assay to measure Tau-Fyn interaction in cells. […]. Screen. 19, 1338-1349).

Data set [3] can be described thus: Partition coefficient (LogD). The format is physicochemical. Particulars: Table 3; read-out: ADME LogD.
Description: as §1

The next data set concerns primary rat neurons. The experiment in a line: Modified MTT assay of Aβ toxicity in primary neurons. The format is cell-based. To be noted: compound 0.3, 3 or 15 μM, 90-minute pretreatment, 2.5 μM Aβ, 24 hours. The source says:
Primary neuron cultures: All animal procedures were approved by the Institutional Animal Care and Use Committee at the University of Alabama at Birmingham (UAB). As before (Rush, et al. (2020) Neurobiol Dis 134, 104668; Voskobiynyk, et al. (2020) eLife 9, e57354), primary rat neurons were isolated from timed-pregnant Sprague-Dawley rats. Briefly, dams were euthanized with isoflurane anesthesia asphyxiation, and hippocampal tissue was isolated from E19 embryos in Hibernate E, then digested in papain for 10 minutes at 37° C. Neurons were triturated into a single cell suspension in Neurobasal supplemented with B-27, L-Glutamine, and 10% FBS, then plated in 96-well plates coated with PDL and laminin at 30,000 neurons per well in 200 uL medium or in 24-well coated plates with or without coverslips at 50,000 per well. Cultures were maintained at 37° C. with 5% CO2. Twenty-four hours after plating (DIV1), two 50% media changes with Neurobasal plus B-27 and L-Glutamine without FBS, and 5 μM cytosine β-D-arabinofuranoside was added to prevent glial proliferation. 50% media changes were performed at DIV7 and DIV14 with serum-free supplemented Neurobasal and experiments were started at DIV19.
Aβ oligomer preparation: As before (Rush, et al. (2020) Neurobiol Dis 134, 104668), lyophilized recombinant Aβ42 was dissolved in HFIP, dried overnight, then stored at −20° C. until oligomerization. To oligomerize, Aβ was dissolved in DMSO to 1 mM, then diluted to 100 µM in PBS, then sonicated and left on ice for 24 hours. Immediately prior to use, Aβ was centrifuged at 4° C. for 10 minutes at 14,000×g. Vehicle was prepared as well in identical fashion except lacking the Aβ peptide.
Aβ toxicity assays: The modified MTT and MAP2 assays were adapted from a recent study (Rush, et al. (2020) Neurobiol Dis 134, 104668). Briefly, at DIV19, media on the neurons was reduced to […], then compound was added to final concentration of 0 μM, 0.3 μM, 3 μM, or 15 μM with even amounts of DMSO. After 90-minute pretreatment with compound, 2.5 μM Aβ was added.
The modified MTT assay was performed 24 hours after Aβ application. 100 μM MTT was applied to neurons and incubated at 37° C. for one hour. Media was removed, then replaced with 15 μL 1.6% Tween20 in PBS and incubated on a shaker at 100 rpm for 5 minutes. The Tween was then removed and transferred to a 384-well clear-bottom plate and replaced with 15 μL isopropanol. Plates were again agitated for 5 minutes at RT, then isopropanol was transferred to the 384-well plate. Absorbance was then read at 590 nm on a plate reader, with 660 nm used as a reference. The ratio of Tween soluble MTT to isopropanol soluble (Tween-insoluble) MTT was calculated for each sample, then normalized to the vehicle group average.
(Tetrazolium dyes change colour on reduction, which living cells bring about.)

A further data set addresses Tau-Fyn interaction (Homo sapiens (Human), UniProt P10636). Description: Tau-Fyn PLA screening in HEK-293 cells. The format is cell-based. Particulars: compound 15 μM, 24 hours. On the procedure:
Tau-Fyn PLA screening in HEK-293 cells: For Tau-Fyn PLA in HEK-293 cells, we used the same plasmids as before (Rush, et al. (2020) Neurobiol Dis 134, 104668): human 4R2N Tau with an N-terminal mKate2 tag in a pcDNA3.1 vector and human Fyn with an N-terminal Myc tag in a pCMV-Sport6 vector grown in Stellar E. coli. HEK-293 cells were plated on coverslips coated with PDL and laminin in a 24-well plate in DMEM supplemented with 10% FBS and 1% PenStrep. Cells were transfected with 125 ng of Tau-mKate2 and Fyn plasmids with 1.5 μL Fugene in plain DMEM. After 24 hours, compound was applied at 15 μM. Twenty-four hours after application, cells were fixed. PLA protocol was the same as above except for different primary antibodies (Tau5 1:500, Fyn3 1:250). After image acquisition, PLA density was calculated as PLA puncta (as above) divided by cell area to account for differences in confluency. Cell area was defined with ImageJ as % Area after theresholding Tau-mKate2 fluorescence because it filled the cells evenly. Puncta/cell area was then normalized to vehicle-treated slides from that experiment.

[4] abbreviates: Table 3, read-out: Alpha screen IC50.
Where [5] appears, read: Table 2, Tau-FynSH3 inhibitory activity in the AlphaScreen, read-out: IC50.

Like-named read-outs stand apart in the source and are kept apart here. Bounds are passed on as bounds.

Data on eleven compounds can be found in patent publication US20250367209A1 (SOUTHERN RESEARCH INSTITUTE, priority 2022, published 2025).

Sequence of Tau-FynSH3 interaction (P10636 other isoform, or with tags, fused parts or gaps): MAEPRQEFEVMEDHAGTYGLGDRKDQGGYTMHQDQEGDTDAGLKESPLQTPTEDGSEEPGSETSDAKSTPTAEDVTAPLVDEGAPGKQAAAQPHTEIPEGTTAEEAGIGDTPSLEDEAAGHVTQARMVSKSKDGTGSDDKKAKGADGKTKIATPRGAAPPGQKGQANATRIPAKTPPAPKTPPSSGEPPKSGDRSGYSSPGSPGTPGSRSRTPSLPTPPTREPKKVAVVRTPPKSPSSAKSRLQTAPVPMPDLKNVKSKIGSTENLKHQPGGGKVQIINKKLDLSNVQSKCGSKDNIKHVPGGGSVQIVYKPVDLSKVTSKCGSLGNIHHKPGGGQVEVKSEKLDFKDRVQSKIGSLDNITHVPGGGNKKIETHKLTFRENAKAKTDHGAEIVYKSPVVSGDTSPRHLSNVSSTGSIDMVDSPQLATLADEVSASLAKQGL
Sequence of Tau-Fyn interaction (P10636 other isoform, or with tags, fused parts or gaps): as above

As a reminder, the IC50 is the concentration needed to halve the response being measured. For orientation: logD means the decadic logarithm of the distribution of all forms, ionised or not, between an organic phase and buffer at a given pH. For `O=C(CN1C(=O)CSc2ccc(Cl)cc21)Nc1nnc(-c2ccccn2)[nH]1` [compound 16, 2-(6-CHLORO-3-OXO-2H-BENZO[B][1,4]THIAZIN-4(3H)-YL)-N-(5-(PYRIDIN-2-YL)-4H-1,2,4-TRIAZOL-3-YL)ACETAMIDE], the figures for the half-life in data set [1] and in data set [2] were 74 min and 26 min, respectively. The “ADME Sol (μM)” value in “Solubility” is recorded as “Sol = 9 μM”. The IC50 at Tau-FynSH3 interaction (setting [4]) amounted to 2580 nM. Further, in data set [3], the logD turned out to be 2.3.

On to `O=C(Cn1c(=O)sc2ccccc21)Nc1nnc(-c2ccccn2)[nH]1` [compound 26], for which the half-life in data set [1] is above 300 min; in data set [2], 82 min. In addition, the “ADME Sol (μM)” value in the data set “Solubility” is recorded as “Sol = 22 μM”. Besides, the IC50 on Tau-FynSH3 interaction (setting [4]) is 1010 nM. For the same compound, the logD in data set [3] amounted to 1.5.

As to `O=C(CCN1CCSc2ccccc21)Nc1nnc(-c2ccccn2)[nH]1` [compound no. 57], the “Aβ toxicity / Aβ-induced membrane trafficking dysfunction, modified MTT assay” value in the data set on primary rat neurons is given as “did not”. The “Tau-Fyn interaction in cells, Tau-Fyn PLA in HEK-293 cells” value at Tau-Fyn interaction is recorded as “did not reduce Tau-Fyn interaction in cells”.

For orientation: Solubility means how much of the substance goes into solution per volume. Read a low Solubility as a poorly soluble substance. Compound `Cc1ccc2c(c1)SCCN2CC(=O)Nc1nnc(-c2ccccn2)[nH]1` [compound 60] returned a Solubility in “Solubility” below 1 µM.

In the case of `COc1ccc2c(c1)SCC(=O)N2CC(=O)Nc1nnc(-c2ccccn2)[nH]1` [compound 21, 2-(7-METHOXY-3-OXO-2H-BENZO[B][1,4]THIAZIN-4(3H)-YL)-N-(5-(PYRIDIN-2-YL)-4H-1,2,4-TRIAZOL-3-YL)ACETAMIDE], the half-life in data set [1] was 175 min; in data set [2], 53 min. The “ADME Sol (μM)” value in “Solubility” was “Sol = 46 μM”. The IC50 on Tau-FynSH3 interaction (setting [4]) is 1030 nM. The logD in data set [3] was found to be 1.7.

Consider `O=C(CN1CCSc2cc(Cl)ccc21)Nc1nnc(-c2ccccn2)[nH]1` [compound 58], for which the Solubility in the data set “Solubility” is recorded as below 1 µM.

For the compound `O=C(CCN1C(=O)CSc2ccccc21)Nc1ccc(-n2cncn2)cc1` [compound no. 37, N-(4-(1H-1,2,4-TRIAZOL-1-YL)PHENYL)-3-(3-oxo-2,3-DIHYDRO-4H-BENZO[B][1,4]THIAZIN-4-YL)PROPANAMIDE], in the data set on primary rat neurons, the “Aβ toxicity / Aβ-induced membrane trafficking dysfunction, modified MTT assay” value is recorded as “did not ameliorate Aβ toxicity”. In addition, the “AlphaScreen activity (in words)” value on Tau-FynSH3 interaction is given as “no observed AlphaScreen activity”. In addition, the IC50 at Tau-FynSH3 interaction (setting [5]) was above 100000 nM. Further, on Tau-FynSH3 interaction (Table 3), the “Alpha screen IC50 (μM)” value is listed as “Inactive”.

On to `O=C(CN1CCSc2cc(C(=O)O)ccc21)Nc1nnc(-c2ccccn2)[nH]1` [compound 64], for which the “MLM t1/2” value in data set [2] (Table 2) is above 5 h. Moreover, the IC50 on Tau-FynSH3 interaction (setting [5]) is below 200 nM.

In the case of `O=C(CCN1C(=O)CSc2ccccc21)Nc1ccc(-c2ccccc2)cc1` [compound 39, N-([1,1′-BIPHENYL]-4-YL)-3-(3-Oxo-2,3-DIHYDRO-4H-BENZO[B][1,4]THIAZIN-4-YL)PROPANAMIDE], the “Alpha screen IC50 (μM)” value at Tau-FynSH3 interaction (Table 3) is given as “Inactive”.

Take `O=C(CN1C(=O)CSc2ccccc21)Nc1nnc(-c2ccccn2)[nH]1` [compound no. 56]: the “improvement in activity in the Tau-FynSH3 AlphaScreen” value at Tau-FynSH3 interaction (compared to compound no. 55) is recorded as “five-fold improvement in activity”. Further, the IC50 at Tau-FynSH3 interaction (read-out: IC50 in the Tau-FynSH3 AlphaScreen) was determined as 840 nM.

Turning to `O=C(CN1C(=O)CSc2ccccc21)Nc1nnc(-c2cccnc2)[nH]1` [compound 24, 2-(3-OXO-2,3-DIHYDRO-4H-BENZO[B][1,4]THIAZIN-4-YL)-N-(5-(PYRIDIN-3-YL)-4H-1,2,4-TRIAZOL-3-YL)ACETAMIDE], the “Alpha screen IC50 (μM)” value at Tau-FynSH3 interaction (Table 3) is listed as “Inactive”.
